Consider 17 compounds from patent publication US9670250B2, “Alpha-helical peptidomimetic inhibitors and methods using same” (The Trustees of the University of Pennsylvania, priority 2012, dated 2017).

Starred links: 1 amine or outer side, 2 acyl side, 3 side chain; linkers in the order of their positions; H or OH if unused. Positions of bridges follow the written chain, without caps; N, C: chain ends. Residues, ends and D or L forms follow the SMILES beside them. mXylylene = c1cc(C[*:1])cc(C[*:2])c1

What all share (type): biochemical
For one assay, the target named is T1, Calpain (Calpain-1) (Homo sapiens, UniProt P07384).
T1 sequence (P07384 1-714): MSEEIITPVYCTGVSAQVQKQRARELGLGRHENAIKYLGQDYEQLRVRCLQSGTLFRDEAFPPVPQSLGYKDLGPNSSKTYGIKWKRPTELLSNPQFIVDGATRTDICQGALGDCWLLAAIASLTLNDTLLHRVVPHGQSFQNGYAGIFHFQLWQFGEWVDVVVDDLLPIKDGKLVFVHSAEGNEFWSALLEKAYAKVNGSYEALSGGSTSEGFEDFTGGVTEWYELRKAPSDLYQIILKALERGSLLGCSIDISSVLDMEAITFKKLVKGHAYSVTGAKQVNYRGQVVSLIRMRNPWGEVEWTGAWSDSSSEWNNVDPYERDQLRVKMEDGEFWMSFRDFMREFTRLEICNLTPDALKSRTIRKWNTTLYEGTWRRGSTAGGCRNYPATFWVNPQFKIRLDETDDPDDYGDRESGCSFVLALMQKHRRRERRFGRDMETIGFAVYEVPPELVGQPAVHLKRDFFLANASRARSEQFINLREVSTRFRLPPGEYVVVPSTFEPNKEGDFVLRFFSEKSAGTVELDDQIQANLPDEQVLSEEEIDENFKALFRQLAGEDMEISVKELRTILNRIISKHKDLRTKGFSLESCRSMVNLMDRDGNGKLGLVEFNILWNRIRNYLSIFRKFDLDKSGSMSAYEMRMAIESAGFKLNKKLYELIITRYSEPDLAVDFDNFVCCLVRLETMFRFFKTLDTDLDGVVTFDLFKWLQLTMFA
T1 sequence (P04632 1-268 partner): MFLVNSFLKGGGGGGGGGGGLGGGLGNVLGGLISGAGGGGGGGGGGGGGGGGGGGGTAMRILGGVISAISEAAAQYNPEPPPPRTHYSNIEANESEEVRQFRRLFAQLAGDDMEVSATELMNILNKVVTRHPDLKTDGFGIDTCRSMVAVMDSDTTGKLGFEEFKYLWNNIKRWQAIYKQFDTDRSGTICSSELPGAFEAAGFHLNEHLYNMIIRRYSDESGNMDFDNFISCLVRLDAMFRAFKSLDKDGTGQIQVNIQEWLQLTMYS
As to the kind of experiment: in vitro fluorescence-based protease inhibition assay, calpain. An excerpt: (§1) Thus, the present invention includes a series of potent and highly specific α-helical inhibitors for papain family cysteine proteases. […] These short α-helical peptidomimetic inhibitors are modeled after the natural pro-domain sequence but contain a cysteine substitution at specific residues in i,i+4 positions, as shown in FIG. 2B. These cysteine residues are used for stabilization of the helix utilizing an appropriate linker (Muppidi, et al., 2011, Chem Commun (Camb) 47:9396-9398). After synthesis, each inhibitor was tested against its respective protease using an in vitro fluorescence-based assay. For each enzyme, at least one inhibitor was identified that is relatively potent and highly specific for its individual protease. These inhibitors can be modified or otherwise optimized to attain higher potency and selectivity through identification of key interactions between the inhibitor and the active site amino acid residues. Such optimization involves visual examination of the protease crystal structure, and substitution with either non-natural or natural amino acids to exploit possible crucial non-covalent protein ligand interactions, such as hydrogen bond, electrostatic, hydrophobic, and Van der Waals interactions.

A further assay concerns the target T2, Cathepsin K (Homo sapiens, UniProt P43235).
T2 sequence (P43235 115-329): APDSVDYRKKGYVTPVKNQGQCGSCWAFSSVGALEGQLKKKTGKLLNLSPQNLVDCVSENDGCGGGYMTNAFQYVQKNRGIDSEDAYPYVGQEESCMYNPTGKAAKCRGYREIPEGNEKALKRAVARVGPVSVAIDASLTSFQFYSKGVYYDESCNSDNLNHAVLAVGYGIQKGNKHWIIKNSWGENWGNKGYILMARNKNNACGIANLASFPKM
Kind of assay: in vitro fluorescence-based protease inhibition assay, cathepsin K.
Text: as §1

Another assay has as its target Cathepsin L (Homo sapiens, UniProt P07711). Kind of assay: in vitro fluorescence-based protease inhibition assay, cathepsin L. Conditions: for Ki: Table 4, calpain inhibitors.
Text: as §1

[1] abbreviates: Table 2, cathepsin S inhibitors.

Cathepsin L, sequence (P07711 114-333, species assumed): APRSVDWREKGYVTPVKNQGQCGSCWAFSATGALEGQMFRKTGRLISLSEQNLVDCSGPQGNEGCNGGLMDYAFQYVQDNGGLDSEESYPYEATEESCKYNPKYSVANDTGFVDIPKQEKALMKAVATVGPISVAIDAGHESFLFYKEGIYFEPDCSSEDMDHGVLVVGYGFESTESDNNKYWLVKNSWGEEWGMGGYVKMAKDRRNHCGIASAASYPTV

In general, Ki refers to the dissociation constant of the complex between target and ligand, obtained from inhibition or displacement. `CSCC[C@@H]1NC(=O)[C@H](CC(C)C)NC(=O)[C@H](CO)NC(=O)[C@@H](NC(=O)[C@@H](NC(=O)[C@H](Cc2c[nH]c3ccccc23)NC(=O)[C@H](CCC(=O)O)NC(=O)[C@H](Cc2c[nH]c3ccccc23)NC(=O)[C@@H](N)[C@@H](C)O)C(C)C)CSCc2cccc(c2)CSC[C@@H](C(=O)N[C@@H](CO)C(=O)O)NC1=O` [compound 23] (H-TWEWVCSLMCS-OH; linker 6-10 via mXylylene; N-terminus and C-terminus assumed) registered an inhibition constant (Ki) at Calpain (Calpain-1) (setting [1]) of 88.4 ± 1.13 µM.
Turning to 35 (SCELVCKMTGL) [compound 35], the “Cathepsin K activity” value in the assay with Cathepsin K (between 200-500 nM & 50 μM) turned out to be 80% activity.
On to “SEEFRQVMNGF [SEQ ID NO:1, reference compound]”, for which the “cathepsin L inhibitory activity, in words” value with Cathepsin L is reported as “no inhibitory activity”.
As to `CSCC[C@H](NC(=O)[C@H](CCCCN)NC(=O)[C@H](CCC(N)=O)NC(=O)[C@@H](NC(=O)[C@@H](NC(=O)[C@H](CCC(=O)O)NC(=O)[C@H](CCC(=O)O)NC(=O)[C@@H](N)CO)C(C)C)C(C)C)C(=O)N[C@H](C(=O)NCC(=O)N[C@@H](CC(C)C)C(=O)O)[C@@H](C)O` [SEQ ID NO:32, SEEVVQKMTGL, reference compound] (H-SEEVVQKMTGL-OH), the “effect on cathepsin K (inhibition or activation), in words” value at Cathepsin K is listed as “did not inhibit”.
As to `CC(C)C[C@@H]1NC(=O)[C@H](CC(C)C)NC(=O)[C@H](CCC(=O)O)NC(=O)[C@@H](NC(=O)[C@H](Cc2ccc(O)cc2)NC(=O)[C@H](CCCCN)NC(=O)[C@@H]2CCCN2C(=O)[C@@H]2CCCN2C(=O)[C@H](C)N)CSCc2cccc(c2)CSC[C@@H](C(=O)O)NC1=O` [compound 72] (H-APPKYCELLC-OH; linker 6-10 via mXylylene; N-terminus and C-terminus assumed), the Ki on Calpain (Calpain-1) (Table 4, calpain inhibitors) came to 65.6 ± 20.5 µM; on Cathepsin L it was 12.5 ± 1.2 µM.
In the case of `CC[C@H](C)[C@H](N)C(=O)N1CCC[C@H]1C(=O)N1CCC[C@H]1C(=O)N[C@@H](CCCNC(=N)N)C(=O)N[C@@H](Cc1ccc(O)cc1)C(=O)N[C@H]1CSCc2cccc(c2)CSC[C@@H](C(=O)O)NC(=O)[C@H](CC(C)C)NC(=O)[C@H](CC(C)C)NC(=O)[C@H](CCC(=O)O)NC1=O` [compound 80] (H-IPPRYCELLC-OH; linker 6-10 via mXylylene; N-terminus and C-terminus assumed), the Ki on Calpain (Calpain-1) (Table 4, calpain inhibitors) is 5.3 ± 2 µM; on Cathepsin K (Table 4, calpain inhibitors) it was more than 100 µM.
Compound `CSCC[C@@H]1NC(=O)[C@H](CC(C)C)NC(=O)[C@H](CO)NC(=O)[C@@H](NC(=O)[C@@H](NC(=O)[C@H](Cc2c[nH]c3ccccc23)NC(=O)[C@H](CCC(=O)O)NC(=O)[C@H](Cc2c[nH]c3ccccc23)NC(=O)[C@@H](N)Cc2c[nH]c3ccccc23)C(C)C)CSCc2cccc(c2)CSC[C@@H](C(=O)N[C@@H](CO)C(=O)O)NC1=O` [compound 25] (H-WWEWVCSLMCS-OH; linker 6-10 via mXylylene; N-terminus and C-terminus assumed) returned an inhibitory constant (Ki) at Calpain (Calpain-1) (setting [1]) of 85.5 ± 1.3 µM.
`CC[C@H](C)[C@H](NC(=O)[C@@H](NC(=O)[C@@H](NC(=O)[C@@H](N)CCC(=O)O)C(C)C)[C@@H](C)O)C(=O)N1CCC[C@H]1C(=O)N1CCC[C@H]1C(=O)N[C@@H](CCCCN)C(=O)N[C@@H](Cc1ccc(O)cc1)C(=O)N[C@H]1CSCc2cccc(c2)CSC[C@@H](C(=O)O)NC(=O)[C@H](CC(C)C)NC(=O)[C@H](CC(C)C)NC(=O)[C@H](CCC(=O)O)NC1=O` [compound 69] (H-EVTIPPKYCELLC-OH; linker 9-13 via mXylylene; N-terminus and C-terminus assumed): the inhibition constant Ki was 5.3 ± 1.9 µM at Calpain (Calpain-1) (Table 4, calpain inhibitors) and more than 100 µM at Cathepsin K (Table 4, calpain inhibitors).
With `CC(C)C[C@@H]1NC(=O)[C@H](CC(C)C)NC(=O)[C@H](CCC(=O)O)NC(=O)[C@@H](NC(=O)[C@H](Cc2ccc(O)cc2)NC(=O)[C@H](CCCCN)NC(=O)[C@@H]2CCCN2C(=O)[C@@H]2CCCN2C(=O)[C@@H](N)CC(C)C)CSCc2cccc(c2)CSC[C@@H](C(=O)O)NC1=O` [compound 74] (H-LPPKYCELLC-OH; linker 6-10 via mXylylene; N-terminus and C-terminus assumed), the Ki on Calpain (Calpain-1) (Table 4, calpain inhibitors) is 11 ± 3.6 µM; at Cathepsin K (Table 4, calpain inhibitors), more than 100 µM.
As for `CSCC[C@@H]1NC(=O)[C@H](CC(C)C)NC(=O)[C@H](CO)NC(=O)[C@@H](NC(=O)[C@@H](NC(=O)[C@H](CCC(=O)O)NC(=O)[C@H](CCC(=O)O)NC(=O)[C@H](CO)NC(=O)[C@@H](N)Cc2c[nH]c3ccccc23)C(C)C)CSCc2cccc(c2)CSC[C@@H](C(=O)N[C@@H](CO)C(=O)O)NC1=O` [compound 17] (H-WSEEVCSLMCS-OH; linker 6-10 via mXylylene; N-terminus and C-terminus assumed), the inhibition constant (Ki) at Calpain (Calpain-1) (setting [1]) was 108 ± 1.28 µM; at Cathepsin K (setting [1]) it was more than 100 µM.
Consider `CC(C)C[C@@H]1NC(=O)[C@H](CC(C)C)NC(=O)[C@H](CCC(=O)O)NC(=O)[C@@H](NC(=O)[C@H](Cc2ccc(O)cc2)NC(=O)[C@H](CCCCN)NC(=O)[C@@H]2CCCN2C(=O)[C@@H]2CCCN2C(=O)[C@@H](N)CCC(N)=O)CSCc2cccc(c2)CSC[C@@H](C(=O)O)NC1=O` [compound 76] (H-QPPKYCELLC-OH; linker 6-10 via mXylylene; N-terminus and C-terminus assumed), for which the affinity on Calpain (Calpain-1) (Table 4, calpain inhibitors) corresponds to a Ki of 35 ± 10.4 µM.
For `CC[C@H](C)[C@H](N)C(=O)N1CCC[C@H]1C(=O)N1CCC[C@H]1C(=O)N[C@@H](CCCCN)C(=O)N[C@@H](Cc1ccc(O)cc1)C(=O)N[C@H]1CSCc2cccc(c2)CSC[C@@H](C(=O)O)NC(=O)[C@H](CC(C)C)NC(=O)[C@H](CC(C)C)NC(=O)[C@H](CCC(=O)O)NC1=O` [compound 65], the inhibition constant (Ki) is 10.2 ± 2.9 µM on Calpain (Calpain-1) (Table 4, calpain inhibitors) and more than 100 µM on Cathepsin K (Table 4, calpain inhibitors).
In the case of `CC[C@H](C)[C@H](N)C(=O)N1CCC[C@H]1C(=O)N1CCC[C@H]1C(=O)N[C@@H](CCCCN)C(=O)N[C@@H](Cc1ccc(O)cc1)C(=O)N[C@H]1CSCc2cccc(c2)CSC[C@@H](C(=O)O)NC(=O)[C@H](CC(C)C)NC(=O)[C@H](CC(C)C)NC(=O)[C@H](C)NC1=O` [compound 84] (H-IPPKYCALLC-OH; linker 6-10 via mXylylene; N-terminus and C-terminus assumed), the Ki at Calpain (Calpain-1) (Table 4, calpain inhibitors) was determined as 28.9 ± 9.1 µM; at Cathepsin L, 12.5 ± 1.1 µM.
As to `CC[C@H](C)[C@H](N)C(=O)N1CCC[C@H]1C(=O)N1CCC[C@H]1C(=O)N[C@@H](CCCCN)C(=O)N[C@@H](C)C(=O)N[C@H]1CSCc2cccc(c2)CSC[C@@H](C(=O)O)NC(=O)[C@H](CC(C)C)NC(=O)[C@H](CC(C)C)NC(=O)[C@H](CCC(=O)O)NC1=O` [compound 81] (H-IPPKACELLC-OH; linker 6-10 via mXylylene; N-terminus and C-terminus assumed), on Calpain (Calpain-1) (Table 4, calpain inhibitors), the inhibition constant Ki was more than 100 µM.
Turning to `CC[C@H](C)[C@H](N)C(=O)N1CCC[C@H]1C(=O)N1CCC[C@H]1C(=O)N[C@@H](CCCCN)C(=O)N[C@@H](Cc1ccc(O)cc1)C(=O)N[C@H]1CSCc2cccc(c2)CSC[C@@H](C(=O)O)NC(=O)[C@H](CC(C)C)NC(=O)[C@H](C)NC(=O)[C@H](CCC(=O)O)NC1=O` [compound 86] (H-IPPKYCEALC-OH; linker 6-10 via mXylylene; N-terminus and C-terminus assumed), the affinity on Calpain (Calpain-1) (Table 4, calpain inhibitors) corresponds to a Ki of 30.9 ± 9.2 µM.
In the case of `CC[C@H](C)[C@H](N)C(=O)N1CCC[C@H]1C(=O)N1CCC[C@H]1C(=O)N[C@@H](CCCCN)C(=O)N[C@@H](Cc1ccc(O)cc1)C(=O)N[C@H]1CSCc2cccc(c2)CSC[C@@H](C(=O)O)NC(=O)[C@H](CC(C)C)NC(=O)[C@H](CCC(N)=O)NC(=O)[C@H](CCC(=O)O)NC1=O` [compound 85] (H-IPPKYCEQLC-OH; linker 6-10 via mXylylene; N-terminus and C-terminus assumed), the Ki was 11 ± 3.6 µM on Calpain (Calpain-1) (Table 4, calpain inhibitors) and more than 100 µM at Cathepsin K (Table 4, calpain inhibitors).
For the compound SECFRQCMNGF [SEQ ID NO:2], in the assay with Cathepsin L, the “cathepsin L inhibitory activity, in words” value is reported as “low activity”.
